Test results from ChEMBL document CHEMBL6127070, “Design, synthesis, and molecular dynamic simulations of some novel benzo[d]thiazoles with anti-virulence activity against Pseudomonas aeruginosa” (Eur J Med Chem, 2024).
pIC50: −log10 of the molar value. Calls of active or inactive are those of the source. The rule behind the calls is not given here.

Tests used:
Klebsiella pneumoniae = assay: Antimicrobial activity against Klebsiella pneumoniae ATCC 700603 assessed as growth inhibition zone by agar diffusion method; assay type: functional
Escherichia coli = assay: Antimicrobial activity against Escherichia coli ATCC 25922 assessed as growth inhibition zone by agar diffusion method; assay type: functional
Pseudomonas aeruginosa [1] = assay: Antimicrobial activity against Pseudomonas aeruginosa ATCC 27853 assessed as growth inhibition zone by agar diffusion method; assay type: functional
Staphylococcus aureus = assay: Antimicrobial activity against Staphylococcus aureus ATCC 43300 assessed as growth inhibition zone by agar diffusion method; assay type: functional
Bacillus subtilis = assay: Antimicrobial activity against Bacillus subtilis ATCC 6633 assessed as growth inhibition zone by agar diffusion method; assay type: functional
Candida albicans = assay: Antimicrobial activity against Candida albicans ATCC 60193 assessed as growth inhibition zone by agar diffusion method; assay type: functional
Pseudomonas aeruginosa [2] = assay: Antibacterial activity against Pseudomonas aeruginosa by CLSI protocol based broth microdilution method; assay type: functional; conditions: for MIC: Pseudomonas aeruginosa
Pseudomonas aeruginosa [3] = assay: Antibacterial activity against Pseudomonas aeruginosa assessed as effect on bacterial growth at 9.375 microg/ml incubated for 24 hrs by growth curve analysis; assay type: functional, organism-based; conditions: dose 9.375 µg/ml
Pseudomonas aeruginosa [4] = assay: Inhibition of biofilm formation in Pseudomonas aeruginosa at sub-MIC by crystal violet staining based analysis relative to control; assay type: functional
Pseudomonas aeruginosa [5] = assay: Inhibition of biofilm formation in Pseudomonas aeruginosa assessed as absorbance by measuring OD at 570 nm at sub-MIC by crystal violet staining based analysis (reference value: 0.635 +/- 0.014); assay type: functional
Pseudomonas aeruginosa [6] = assay: Antivirulence activity in Pseudomonas aeruginosa assessed as inhibition of pyocyanin production at sub-MIC by chloroform-HCl extraction method relative to control; assay type: functional
Pseudomonas aeruginosa [7] = assay: Antivirulence activity in Pseudomonas aeruginosa assessed as inhibition of rhamnolipids production at sub-MIC by spectrophotometric method relative to control; assay type: functional
Pseudomonas aeruginosa [8] = assay: Antivirulence activity in Pseudomonas aeruginosa assessed as inhibition of pyocyanin production by measuring OD at […] at sub-MIC by chloroform-HCl extraction method relative to control; assay type: functional
Pseudomonas aeruginosa [9] = assay: Antibacterial activity against Pseudomonas aeruginosa assessed as effect on bacterial growth at 18.75 microg/ml incubated for 24 hrs by growth curve analysis; assay type: functional, organism-based; conditions: dose 18.75 µg/ml
Pseudomonas aeruginosa [10] = assay: Antibacterial activity against Pseudomonas aeruginosa assessed as effect on bacterial growth at 37.5 microg/ml incubated for 24 hrs by growth curve analysis; assay type: functional, organism-based; conditions: dose 37.5 µg/ml
[11] = target: T1, Transcriptional activator protein LasR (Pseudomonas aeruginosa (strain ATCC 15692 / PAO1 / 1C / PRS 101 / LMG12228), UniProt P25084); assay: Inhibition of Pseudomonas aeruginosa LasR in Escherichia coli DH5 transfected with lacZ reporter and JN105 production plasmid incubated for 4 hrs by beta-galactosidase reporter based miller test
T1 sequence (P25084 whole entry): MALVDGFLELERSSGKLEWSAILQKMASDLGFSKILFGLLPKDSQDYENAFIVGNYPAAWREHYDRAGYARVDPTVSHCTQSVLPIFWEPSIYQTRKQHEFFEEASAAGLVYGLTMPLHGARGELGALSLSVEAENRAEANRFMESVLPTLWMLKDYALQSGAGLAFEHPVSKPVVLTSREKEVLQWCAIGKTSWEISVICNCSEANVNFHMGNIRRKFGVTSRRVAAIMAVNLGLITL

Pseudomonas aeruginosa [12] = assay: Antibacterial activity against Pseudomonas aeruginosa assessed as bacterial mortality relative to control; assay type: functional

| Compound | inhibition zone (IZ) (Klebsiella pneumoniae) | inhibition zone (IZ) (Escherichia coli) | inhibition zone (IZ) (Pseudomonas aeruginosa [1]) | inhibition zone (IZ) (Staphylococcus aureus) | inhibition zone (IZ) (Bacillus subtilis) | inhibition zone (IZ) (Candida albicans) | SubMIC (Pseudomonas aeruginosa [2]) | MIC (Pseudomonas aeruginosa [2]) | Activity (Pseudomonas aeruginosa [3]) | inhibition (INH) (Pseudomonas aeruginosa [4]) | OD (Pseudomonas aeruginosa [5]) | inhibition (INH) (Pseudomonas aeruginosa [6]) | inhibition (INH) (Pseudomonas aeruginosa [7]) | OD (Pseudomonas aeruginosa [8]) | Activity (Pseudomonas aeruginosa [9]) | Activity (Pseudomonas aeruginosa [10]) | inhibition (Pseudomonas aeruginosa [4]) | inhibition (Pseudomonas aeruginosa [7]) | pIC50 [11] | mortality (Pseudomonas aeruginosa [12]) |
| --- | --- | --- | --- | --- | --- | --- | --- | --- | --- | --- | --- | --- | --- | --- | --- | --- | --- | --- | --- | --- |
| N#C/C(=C\c1ccc(N2CCCCC2)cc1)c1nc2ccccc2s1 | 24 mm | 25 mm | 23 mm | 24 mm | 21 mm | 25 mm | 9.375 µg/mL | 18.8 µg/mL | inactive | 52.3% | 0.303 | 43.6% | 34.9% | 0.251 |  |  |  |  |  |  |
| Clc1ccc(-c2ccnc3c(-c4nc5ccccc5s4)cnn23)cc1 | 25 mm | 20 mm | 23 mm | 25 mm | 21 mm | 26 mm | 9.375 µg/mL | 18.8 µg/mL | inactive | 54.8% | 0.287 | 53.9% | 42.5% | 0.205 |  |  |  |  |  |  |
| Cc1nc2c(-c3nc4ccccc4s3)cnn2c(C)c1Cl | 22 mm | 21 mm | 21 mm | 19 mm | 21 mm | 22 mm | 18.75 µg/mL | 37.5 µg/mL |  | 36.1% | 0.406 | 31.5% | 21.2% | 0.305 | inactive |  |  |  |  |  |
| Cc1cc(C)n2ncc(-c3nc4ccccc4s3)c2n1 | 19 mm | 17 mm | 17 mm | 18 mm | 15 mm | 20 mm | 37.5 µg/mL | 75 µg/mL |  |  | 0.631 | 8.5% |  | 0.407 |  | inactive | inactive | inactive |  |  |
| N#C/C(=C\c1ccc(N2CCCC2)cc1)c1nc2ccccc2s1 | 26 mm | 24 mm | 25 mm | 27 mm | 22 mm | 28 mm | 9.375 µg/mL | 18.8 µg/mL | inactive | 63.9% | 0.229 | 64.9% | 51% | 0.156 |  |  |  |  | 5.81 |  |
| CN1CCN(c2ccc(/C=C(\C#N)c3nc4ccccc4s3)cc2)CC1 | 27 mm | 26 mm | 26 mm | 28 mm | 25 mm | 30 mm | 9.375 µg/mL | 18.8 µg/mL | inactive | 77% | 0.146 | 74.6% | 58.5% | 0.113 |  |  |  |  | 5.86 |  |
| Brc1ccc(-c2ccnc3c(-c4nc5ccccc5s4)cnn23)cc1 | 17 mm | 18 mm | 19 mm | 19 mm | 16 mm | 20 mm | 18.75 µg/mL | 37.5 µg/mL |  | 20% | 0.508 | 15.5% | 9.5% | 0.376 | inactive |  |  |  |  |  |
| OC(Cn1cncn1)(Cn1cncn1)c1ccc(F)cc1F [FLUCONAZOLE] |  |  |  |  |  | 30 mm |  |  |  |  |  |  |  |  |  |  |  |  |  |  |
| O=C(O)c1cn(C2CC2)c2cc(N3CCNCC3)c(F)cc2c1=O [CIPROFLOXACIN] |  |  |  |  |  |  |  |  |  |  |  |  |  |  |  |  |  |  |  | 16.99% |
| COc1ccc(-c2ccnc3c(-c4nc5ccccc5s4)cnn23)cc1 | 19 mm | 22 mm | 22 mm | 17 mm | 19 mm | 23 mm | 9.375 µg/mL | 18.8 µg/mL | inactive | 46.1% | 0.342 | 39.8% | 28.6% | 0.268 |  |  |  |  |  |  |
| CC[C@H]1OC(=O)[C@H](C)[C@@H](O[C@H]2C[C@@](C)(OC)[C@@H](O)[C@H](C)O2)[C@H](C)[C@@H](O[C@@H]2O[C@H](C)C[C@H](N(C)C)[C@H]2O)[C@](C)(OC)C[C@@H](C)C(=O)[C@H](C)[C@@H](O)[C@]1(C)O [CLARITHROMYCIN] |  |  |  |  |  |  |  |  |  |  |  |  |  |  |  |  |  |  |  | 29.11% |
| Fc1ccc(-c2ccnc3c(-c4nc5ccccc5s4)cnn23)cc1 | 26 mm | 21 mm | 25 mm | 24 mm | 25 mm | 30 mm | 9.375 µg/mL | 18.8 µg/mL | inactive | 69.4% | 0.194 | 69.4% | 54.3% | 0.136 |  |  |  |  | 5.96 |  |
| c1ccc(-c2ccnc3c(-c4nc5ccccc5s4)cnn23)cc1 | 21 mm | 19 mm | 20 mm | 20 mm | 17 mm | 21 mm | 18.75 µg/mL | 37.5 µg/mL |  | 25.7% | 0.472 | 22.2% | 13.3% | 0.346 | inactive |  |  |  |  |  |
| CC1CCN(c2ccc(/C=C(\C#N)c3nc4ccccc4s3)cc2)CC1 | 27 mm | 22 mm | 22 mm | 22 mm | 20 mm | 24 mm | 9.375 µg/mL | 18.8 µg/mL | inactive | 50.1% | 0.317 | 40.7% | 30.9% | 0.264 |  |  |  |  |  |  |
| N#C/C(=C\c1ccc(N2CCOCC2)cc1)c1nc2ccccc2s1 | 20 mm | 24 mm | 21 mm | 23 mm | 19 mm | 24 mm | 18.75 µg/mL | 37.5 µg/mL |  | 39.7% | 0.383 | 35.1% | 24.3% | 0.289 | inactive |  |  |  |  |  |
| Cc1ccc(-c2ccnc3c(-c4nc5ccccc5s4)cnn23)cc1 | 26 mm | 22 mm | 24 mm | 26 mm | 20 mm | 28 mm | 9.375 µg/mL | 18.8 µg/mL | inactive | 59.1% | 0.26 | 59.6% | 45.3% | 0.18 |  |  |  |  |  |  |
| C[C@@H](O)[C@H]1C(=O)N2C(C(=O)O)=C(SCCNC=N)C[C@H]12 [IMIPENEM ANHYDROUS] | 18 mm | 22 mm | 12 mm | 24 mm | 20 mm |  |  | 93.9 µM |  |  |  |  |  |  |  |  |  |  |  |  |
| Nc1[nH]ncc1-c1nc2ccccc2s1 | 18 mm | 16 mm | 16 mm | 15 mm | 15 mm | 17 mm | 37.5 µg/mL | 75 µg/mL |  |  | 0.612 | 4.5% |  | 0.425 |  | inactive | inactive | inactive |  |  |
